Measured values reported in patent US20130217592A1, “ARRAYS AND METHODS COMPRISING M. SMITHII GENE PRODUCTS” (THE WASHINGTON UNIVERSITY, priority 2007, published 2013).

How the values were obtained:
[1] = tested on: M. smithii strains DSMZ 861 (PS), 2374 (F1), 2375 (ALI) and 11975 (B181); test: Statin susceptibility of M. smithii strains in the PHAT system, 96-well plates, growth by optical density at 600 nm (all four strains); type: cell-based, Methanobrevibacter smithii; settings: preliminary results
Description: A system for culturing M. smithii in 96-well plate format was designed and constructed in the following manner (See FIG. 15). Three stainless steel paint canisters (Binks, 83S-210, 2 gallon size) were modified for incubation of plates at 37° C. in an oxygen-free gas mix of 20% CO2/80% H2 at a pressure of 30 psi, where all of these growth parameters can be monitored and recorded.
The canisters are heated using Electro-Flex Heat brand Pail Heaters controlled by a custom designed controller consisting of a 16A2120 temperature/process control (Love Controls), an RTD (resistance temperature detector) probe to measure internal tank temperature, and several safety features to prevent overheating or burns.
The system is pressurized with oxygen-free gas that has flowed through a custom-built oxygen scrub. Commercially available gas mixes used for culturing M. smithii contain trace levels of oxygen that would kill the organism: thus, the gas mixture must be passed through an oxygen scrub. This scrub consists of a glass tube filled with copper mesh that is heated to 350° C. with heating tape (HTS/Amptek Duo-Tape), controlled by a benchtop power controller (HTS/Amptek BT-Z). The oxygen scrub is covered with insulating tape and secured behind a heat resistant polyetherimide case. Pressure in each tank is measured and recorded with a digital manometer (LEO record, Omni Instruments).
The system is housed inside an anaerobic chamber (COY laboratories) to allow inspection and manipulation of cultures and plates without exposing M. smithii to oxygen. Each tank can house 30 standard volume 96-well plates, which can be analyzed inside the COY anaerobic chamber with a microplate reader (BioRad) that monitors growth by measuring optical density.
1.5 μl of the stock solutions were added to wells in 96-well plates and transferred to the COY anaerobic chamber where they were kept for at least 24 hours to become anaerobic. 150 microliters of actively growing Methanobrevibacter smithii cultures were then added to each well (excluding medium+drug blanks) to bring the drug concentrations to 1 mM, 100 μM and 10 μM, respectively. The plates were incubated in the newly developed pressurized heated anaerobic tank system in a 4:1 mixture of oxygen-scrubbed H2 and CO2 at a pressure of 30 psi. Cultures grown in 1% ethanol, methanol and DMSO were used as controls. Growth was measured by determining optical density at 600 nm using the BioRad microplate reader (model 680).
Each condition was tested in triplicate with the average measurement plotted.

[2] = tested on: Bacteroides thetaiotaomicron; test: Effect of statins on growth of B. thetaiotaomicron (FIG. 14); type: cell-based; settings: statin concentration of 1 mM (FIG. 14)

SMILES | inhibition of growth of M. smithii strains ([1]; 1 millimolar) | inhibition of growth of M. smithii strains ([1]; 100 micromolar) | effect on the growth of Bacteroides thetaiotaomicron [2]
CC(C)c1nc(N(C)S(C)(=O)=O)nc(-c2ccc(F)cc2)c1/C=C/[C@@H](O)C[C@@H](O)CC(=O)O [rosuvastatin] | inhibit all strains tested | inhibit all strains | None of these three statins had any affect on the growth
CC(C)c1c(C(=O)Nc2ccccc2)c(-c2ccccc2)c(-c2ccc(F)cc2)n1CC[C@@H](O)C[C@@H](O)CC(=O)O [atorvastatin] | inhibit all strains tested | inhibit all strains | None of these three statins had any affect on the growth
